Data: patent publication US20250295732A1, “COMPOSITIONS AND METHODS FOR ACTIVATING INNATE IMMUNITY” (Zoetis Services LLC, priority 2021, published 2025)

How the values were obtained:
[1] = system: milk macrophages (CD14+CD172a+ milk cells); assay: In vivo intramammary treatment and E. coli mastitis challenge model; parameters: species or system lactating dairy cows
Experimental: Healthy lactating dairy cows were treated according to table 1 on day −2 of study, at the AM milking, in the front quarters designated by the allotment, one quarter was treated with CATH2 and the neighboring quarter within the same cow was given vehicle control by intramammary infusion. Following administration of CATH2 and vehicle doses, quarters which received CATH2 or vehicle received an intramammary infusion of live Escherichia coli. The E. coli strain used causes clinical mastitis. Milk samples from CATH2-treated and vehicle control quarters were collected following E. coli challenge for cell isolation to assess macrophage surface marker expression.
Expression of surface markers on bovine monocyte-derived macrophages and cells isolated from bovine milk were assessed using flow cytometry. In brief, for monocyte-derived macrophages, cells were lifted with Accutase, washed, and then incubated with fluorescently tagged antibodies against bovine surface markers of interest (CD163, CD14, CD80, MHC II) and a live/dead stain. In brief, for cells in bovine milk, milk was diluted in MACS Running Buffer, spun, fat layer and supernatant were discarded, and milk cell pellets were preserved in Streck. Preserved milk cells were washed again and then incubated with fluorescently tagged antibodies against bovine surface markers of interest (CD163, CD14, CD80, MHC II, CD172a) and a live/dead stain. Following incubation with live/dead stain and antibodies, labeled cells were washed, and then analyzed on a ZE5 CellAnalyzer (BioRad) for monocyte-derived macrophages and a FACS Canto II (BD) for milk cells. Flow cytometry data were analyzed using FlowJo analysis software (Becton Dickson) to assess relative levels of expression via mean fluorescent intensity for each marker of interest within the live CD14+ cell population (for monocyte-derived macrophages) or within the live CD14+CD172a+ cell population (for milk cells).

[2] = system: bovine monocyte-derived macrophages; assay: Phagocytosis of pHrodo green-labeled E. coli bioparticle (IncuCyte); assay type: cell-based; details: <4 hr from challenge with E. coli bioparticles (10 μg/mL); after CATH2 24 hr and 3-day rest; vs vehicle
Text: Peripheral blood mononuclear cells (PBMC) were isolated from bovine blood using ficoll gradients. Bovine monocytes were isolated from PBMC using magnetic assisted cell sorting to positively select for CD14+ cells using anti-human CD14 microbeads (Miltenyi Biotec). Purified bovine blood CD14+ monocytes were differentiated into macrophages using an M2-skewing differentiation factor (recombinant bovine M-CSF) over 7 days then exposed to CATH2 or a vehicle control in the presence of bovine casein to mimic aspects of the mammary gland for 24 hr. […] Following the rest period, a subset of vehicle- and CATH2-trained monocyte-derived macrophages were assessed for epigenetic and transcriptomic changes. The remaining cells were challenged with LPS or E. coli bioparticle labeled with pH-sensitive pHrodo green dye and key parameters for macrophage activation/immune response were assessed including glycolytic activity, surface marker expression, gene expression, cytokine production, phagocytosis, reactive nitrogen species production, and miRNA profiling. In brief, E. coli bioparticle labeled with pHrodo-green pH sensitive dye (Invitrogen) were added to monocyte-derived macrophages and phase and green fluorescence was captured over time using the S3 IncuCyte® Live-Cell Analysis System (Essen Bioscience) over a period of 24-hr. […]

[3] = system: bovine monocyte-derived macrophages; assay: Reactive nitrogen species (nitrite, Griess Reagent System); assay type: cell-based; details: E. coli bioparticles 10 μg/mL 24 hours after CATH2 24 hr and 3-day rest; vs vehicle
Text: Peripheral blood mononuclear cells (PBMC) were isolated from bovine blood using ficoll gradients. Bovine monocytes were isolated from PBMC using magnetic assisted cell sorting to positively select for CD14+ cells using anti-human CD14 microbeads (Miltenyi Biotec). Purified bovine blood CD14+ monocytes were differentiated into macrophages using an M2-skewing differentiation factor (recombinant bovine M-CSF) over 7 days then exposed to CATH2 or a vehicle control in the presence of bovine casein to mimic aspects of the mammary gland for 24 hr. […] Following the rest period, a subset of vehicle- and CATH2-trained monocyte-derived macrophages were assessed for epigenetic and transcriptomic changes. The remaining cells were challenged with LPS or E. coli bioparticle labeled with pH-sensitive pHrodo green dye and key parameters for macrophage activation/immune response were assessed including glycolytic activity, surface marker expression, gene expression, cytokine production, phagocytosis, reactive nitrogen species production, and miRNA profiling. Nitrite, a primary breakdown product of nitric oxide, in cell culture supernatant were quantified using Griess Reagent System (Promega) according to manufacturer's instructions.

[4] = intramammary CATH2 prior to E. coli challenge

## RFGRFLRKIRRFRPKVTITIQGSARFG [CATH2, cathelicidin 2 peptide]
[1]; [4]
  Bacterial counts in milk: reduced bacterial counts in milk
  Milk somatic cell counts: lower milk somatic cell counts
[1]; intramammary CATH2 prior to challenge, 12 hr following live E. coli intramammary challenge, vs vehicle quarter
  Milk macrophage surface marker expression (CD14, CD80, MHC II, CD163): enhanced expression of the same surface markers
[2]
  Phagocytosis of E. coli bioparticles: enhanced phagocytosis of E. coli bioparticles
[3]
  RNS (nitrite) response to E. coli bioparticle challenge: enhanced production of nitrogen oxide species/reactive nitrogen species (RNS) responses
